Experimental data published in article PMC11576293, “New series of 4,6-diaryl pyrimidines: facile synthesis and antiproliferative activity as dual EGFR/VEGFR-2 inhibitors” (Frontiers in Chemistry, 2024).

How the values were obtained:
TK-10 = test: NCI-60 single-dose screen; type: cell-based; conditions: Homo sapiens, single dose 10 µM, '-' = no inhibition, read-out: % Growth Inhibition
How it was run: (§1)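 Compounds tested once at 10 μM across the NCI-60 panel of 60 human cancer cell lines spanning nine tumour types (leukemia, lung, colon, CNS, melanoma, ovarian, renal, prostate, breast), run by the NCI Developmental Therapeutics Program.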

SF-268 = test: NCI-60 single-dose screen; type: cell-based; conditions: Homo sapiens, single dose 10 µM, '-' = no inhibition, read-out: % Growth Inhibition
How it was run: as §1

NCI-H23 = test: NCI-60 single-dose screen; type: cell-based; conditions: Homo sapiens, single dose 10 µM, '-' = no inhibition, read-out: % Growth Inhibition
How it was run: as §1

DU-145 = test: NCI-60 single-dose screen; type: cell-based; conditions: Homo sapiens, single dose 10 µM, '-' = no inhibition, read-out: % Growth Inhibition
How it was run: as §1

HT29 = test: NCI-60 single-dose screen; type: cell-based; conditions: Homo sapiens, HT-29, single dose 10 µM, '-' = no inhibition, read-out: % Growth Inhibition
How it was run: as §1

786-0 = test: NCI-60 single-dose screen; type: cell-based; conditions: Homo sapiens, single dose 10 µM, '-' = no inhibition, read-out: % Growth Inhibition
How it was run: as §1

MOLT-4 = test: NCI-60 single-dose screen; type: cell-based; conditions: Homo sapiens, single dose 10 µM, '-' = no inhibition, read-out: % Growth Inhibition
How it was run: as §1

SK-MEL-5 = test: NCI-60 single-dose screen; type: cell-based; conditions: Homo sapiens, single dose 10 µM, '-' = no inhibition, read-out: % Growth Inhibition
How it was run: as §1

NCI-H322M = test: NCI-60 single-dose screen; type: cell-based; conditions: Homo sapiens, single dose 10 µM, '-' = no inhibition, read-out: % Growth Inhibition
How it was run: as §1

SW-620 = test: NCI-60 single-dose screen; type: cell-based; conditions: Homo sapiens, single dose 10 µM, '-' = no inhibition, read-out: % Growth Inhibition
How it was run: as §1

KM12 = test: NCI-60 single-dose screen; type: cell-based; conditions: Homo sapiens, single dose 10 µM, '-' = no inhibition, read-out: % Growth Inhibition
How it was run: as §1

SK-OV-3 = test: NCI-60 single-dose screen; type: cell-based; conditions: Homo sapiens, single dose 10 µM, '-' = no inhibition, read-out: % Growth Inhibition
How it was run: as §1

HCC-2998 = test: NCI-60 single-dose screen; type: cell-based; conditions: Homo sapiens, single dose 10 µM, '-' = no inhibition, read-out: % Growth Inhibition
How it was run: as §1

SF-295 = test: NCI-60 single-dose screen; type: cell-based; conditions: Homo sapiens, single dose 10 µM, '-' = no inhibition, read-out: % Growth Inhibition
How it was run: as §1

HOP-62 = test: NCI-60 single-dose screen; type: cell-based; conditions: Homo sapiens, single dose 10 µM, '-' = no inhibition, read-out: % Growth Inhibition
How it was run: as §1

NCI-H522 = test: NCI-60 single-dose screen; type: cell-based; conditions: Homo sapiens, single dose 10 µM, '-' = no inhibition, read-out: % Growth Inhibition
How it was run: as §1

SK-MEL-28 = test: NCI-60 single-dose screen; type: cell-based; conditions: Homo sapiens, single dose 10 µM, '-' = no inhibition, read-out: % Growth Inhibition
How it was run: as §1

OVCAR-5 = test: NCI-60 single-dose screen; type: cell-based; conditions: Homo sapiens, single dose 10 µM, '-' = no inhibition, read-out: % Growth Inhibition
How it was run: as §1

ACHN 1 = test: NCI-60 single-dose screen; type: cell-based; conditions: Homo sapiens, single dose 10 µM, '-' = no inhibition, read-out: % Growth Inhibition
How it was run: as §1

CCRF-CEM = test: NCI-60 single-dose screen; type: cell-based; conditions: Homo sapiens, single dose 10 µM, '-' = no inhibition, read-out: % Growth Inhibition
How it was run: as §1

MDA-MB-468 = test: NCI-60 single-dose screen; type: cell-based; conditions: Homo sapiens, single dose 10 µM, '-' = no inhibition, read-out: % Growth Inhibition
How it was run: as §1

T-47D = test: NCI-60 single-dose screen; type: cell-based; conditions: Homo sapiens, T47D, single dose 10 µM, '-' = no inhibition, read-out: % Growth Inhibition
How it was run: as §1

CAKI-1 = test: NCI-60 single-dose screen; type: cell-based; conditions: Homo sapiens, single dose 10 µM, '-' = no inhibition, read-out: % Growth Inhibition
How it was run: as §1

U251 = test: NCI-60 single-dose screen; type: cell-based; conditions: Homo sapiens, U-251, single dose 10 µM, '-' = no inhibition, read-out: % Growth Inhibition
How it was run: as §1

A498 = test: NCI-60 single-dose screen; type: cell-based; conditions: Homo sapiens, single dose 10 µM, '-' = no inhibition, read-out: % Growth Inhibition
How it was run: as §1

M14 = test: NCI-60 single-dose screen; type: cell-based; conditions: Homo sapiens, single dose 10 µM, '-' = no inhibition, read-out: % Growth Inhibition
How it was run: as §1

SK-MEL-2 = test: NCI-60 single-dose screen; type: cell-based; conditions: Homo sapiens, single dose 10 µM, '-' = no inhibition, read-out: % Growth Inhibition
How it was run: as §1

OVCAR-4 = test: NCI-60 single-dose screen; type: cell-based; conditions: Homo sapiens, single dose 10 µM, '-' = no inhibition, read-out: % Growth Inhibition
How it was run: as §1

LOX IMVI = test: NCI-60 single-dose screen; type: cell-based; conditions: Homo sapiens, single dose 10 µM, '-' = no inhibition, read-out: % Growth Inhibition
How it was run: as §1

HCT-15 = test: NCI-60 single-dose screen; type: cell-based; conditions: Homo sapiens, single dose 10 µM, '-' = no inhibition, read-out: % Growth Inhibition
How it was run: as §1

UACC-62 = test: NCI-60 single-dose screen; type: cell-based; conditions: Homo sapiens, single dose 10 µM, '-' = no inhibition, read-out: % Growth Inhibition
How it was run: as §1

HL-60(TB) = test: NCI-60 single-dose screen; type: cell-based; conditions: Homo sapiens, single dose 10 µM, '-' = no inhibition, read-out: % Growth Inhibition
K-562 = test: NCI-60 single-dose screen; type: cell-based; conditions: Homo sapiens, K562, single dose 10 µM, '-' = no inhibition, read-out: % Growth Inhibition
How it was run: as §1

NCI-H460 = test: NCI-60 single-dose screen; type: cell-based; conditions: Homo sapiens, single dose 10 µM, '-' = no inhibition, read-out: % Growth Inhibition
How it was run: as §1

CCSc1nc(-c2ccc(Cl)cc2)cc(-c2ccc(OC)cc2)n1 [Compound 10, 4-(4-Chlorophenyl)-2-(ethylthio)-6-(4-methoxyphenyl)pyrimidine]
melting point: 230 to 231 °C | inhibition at 10 µM (TK-10): 0.94% | inhibition at 10 µM (SF-268): < 0% | inhibition at 10 µM (NCI-H23): 0.32% | inhibition at 10 µM (DU-145): < 0% | inhibition at 10 µM (HT29): 9.13% | inhibition at 10 µM (786-0): 3.07% | inhibition at 10 µM (MOLT-4): 2.95% | inhibition at 10 µM (SK-MEL-5): 3.36% | inhibition at 10 µM (NCI-H322M): < 0% | inhibition at 10 µM (SW-620): < 0% | inhibition at 10 µM (KM12): 1.5% | inhibition at 10 µM (SK-OV-3): < 0% | inhibition at 10 µM (HCC-2998): < 0% | inhibition at 10 µM (SF-295): 2.91% | inhibition at 10 µM (HOP-62): < 0% | inhibition at 10 µM (NCI-H522): 8.82% | inhibition at 10 µM (SK-MEL-28): < 0% | inhibition at 10 µM (OVCAR-5): < 0% | inhibition at 10 µM (ACHN 1): 2.57% | inhibition at 10 µM (CCRF-CEM): < 0% | inhibition at 10 µM (MDA-MB-468): < 0% | inhibition at 10 µM (T-47D): 18.6% | inhibition at 10 µM (CAKI-1): 13.3% | inhibition at 10 µM (U251): 4.88% | inhibition at 10 µM (A498): 3.38% | inhibition at 10 µM (M14): < 0% | inhibition at 10 µM (SK-MEL-2): 6.03% | inhibition at 10 µM (OVCAR-4): 12.9% | inhibition at 10 µM (LOX IMVI): < 0% | inhibition at 10 µM (HCT-15): 14.4% | inhibition at 10 µM (UACC-62): < 0% | inhibition at 10 µM (HL-60(TB)): 6.15% | inhibition at 10 µM (K-562): 11.5% | inhibition at 10 µM (NCI-H460): < 0%

COc1ccc(-c2cc(-c3ccc(Cl)cc3)nc(SC)n2)cc1OC [Compound 23, 4-(4-Chlorophenyl)-6-(3,4-dimethoxyphenyl)-2-(methylthio)pyrimidine]
melting point: 228 to 229 °C | inhibition at 10 µM (TK-10): < 0% | inhibition at 10 µM (SF-268): 11.5% | inhibition at 10 µM (NCI-H23): 7.41% | inhibition at 10 µM (DU-145): 9.83% | inhibition at 10 µM (HT29): 26.4% | inhibition at 10 µM (786-0): 6.05% | inhibition at 10 µM (MOLT-4): 26.7% | inhibition at 10 µM (SK-MEL-5): 24.5% | inhibition at 10 µM (NCI-H322M): < 0% | inhibition at 10 µM (SW-620): 1.5% | inhibition at 10 µM (KM12): 25.4% | inhibition at 10 µM (SK-OV-3): 2.94% | inhibition at 10 µM (HCC-2998): < 0% | inhibition at 10 µM (SF-295): 12.4% | inhibition at 10 µM (HOP-62): < 0% | inhibition at 10 µM (NCI-H522): 31.2% | inhibition at 10 µM (SK-MEL-28): 8.87% | inhibition at 10 µM (OVCAR-5): 11.9% | inhibition at 10 µM (ACHN 1): 9.14% | inhibition at 10 µM (CCRF-CEM): 17.9% | inhibition at 10 µM (MDA-MB-468): 6.77% | inhibition at 10 µM (T-47D): 25.5% | inhibition at 10 µM (CAKI-1): 24% | inhibition at 10 µM (U251): 11.6% | inhibition at 10 µM (A498): < 0% | inhibition at 10 µM (M14): 0.3% | inhibition at 10 µM (SK-MEL-2): 8.95% | inhibition at 10 µM (OVCAR-4): 27.5% | inhibition at 10 µM (LOX IMVI): 15% | inhibition at 10 µM (HCT-15): 28% | inhibition at 10 µM (UACC-62): < 0% | inhibition at 10 µM (HL-60(TB)): 18.4% | inhibition at 10 µM (K-562): 39% | inhibition at 10 µM (NCI-H460): 11.4%
